{"source": "paper PMC9851200", "about": "“Multiparameter phenotypic screening for endogenous TFEB and TFE3 translocation identifies novel chemical series modulating lysosome function” (Autophagy, 2022)", "key": {"MTOR": {"target": "MTOR (Homo sapiens, UniProt P42345)", "test": "KINOMEscan MTOR", "type": "binding", "conditions": "NEW KINOMEscan"}, "TFEB or TFE3": {"system": "TFEB or TFE3", "test": "EC50 line in the head of Table S5 (cellular activity of the analogs, assay not given)", "type": "cell-based", "conditions": "assay not named, unit printed only in the first two cells", "protocol": "Figure S5. Activity of quinazoline analogs. […] Compounds were screen at 24-h treatment time up to 5 µM concentration. Data for each compound is represented on single graphs with their structures shown. n=1 for all above assays, mean±s.d. (B) Representative western blot of TFEB levels following treatment of compounds followed by fractionation into cytoplasmic (C) and nuclear (N) compartments. Successful fractionation represented by enrichment of GAPDH in the cytoplasmic fraction and LMNA (lamin A/C) in the nuclear compartment. (C) The levels of nuclear/cytoplasmic TFEB were quantified and presented as a ratio. A paired one-way ANOVA with a Holm-Šídák's multiple comparisons test was performed relative to DMSO for comparison between each compound treatments (n=3)."}, "PKNB(M.tuberculosis)": {"target": "PKNB(M.tuberculosis) (Mycobacterium tuberculosis, UniProt P9WI81)", "sequence (P9WI81 whole entry, looked up)": "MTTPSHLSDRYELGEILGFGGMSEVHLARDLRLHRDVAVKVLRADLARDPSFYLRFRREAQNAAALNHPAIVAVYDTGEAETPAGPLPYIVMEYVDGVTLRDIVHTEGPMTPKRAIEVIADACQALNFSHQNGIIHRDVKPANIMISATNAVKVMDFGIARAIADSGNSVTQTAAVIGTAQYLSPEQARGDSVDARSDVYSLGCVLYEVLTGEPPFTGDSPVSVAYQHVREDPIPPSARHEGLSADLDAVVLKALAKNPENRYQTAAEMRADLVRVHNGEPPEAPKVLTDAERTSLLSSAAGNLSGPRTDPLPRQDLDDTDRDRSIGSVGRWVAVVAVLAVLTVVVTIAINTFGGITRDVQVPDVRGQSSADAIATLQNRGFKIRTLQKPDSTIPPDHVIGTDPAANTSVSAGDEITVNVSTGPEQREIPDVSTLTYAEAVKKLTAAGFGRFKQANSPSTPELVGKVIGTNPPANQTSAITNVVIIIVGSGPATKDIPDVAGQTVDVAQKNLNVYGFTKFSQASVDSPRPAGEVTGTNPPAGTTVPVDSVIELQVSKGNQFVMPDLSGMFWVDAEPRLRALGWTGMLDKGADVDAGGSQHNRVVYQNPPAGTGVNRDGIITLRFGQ", "type": "binding"}}, "data": [{"smiles": "Cc1cccc(-c2nc(N(C)c3ccc4ncsc4c3)c3ccccc3n2)n1", "note": "[NK-161]", "values": [{"measurement": "KINOMEscan MTOR", "setting": "MTOR", "value": 4}, {"measurement": "EC50", "setting": "TFEB or TFE3", "value": 1100, "unit": "nM"}, {"measurement": "KINOMEscan PKNB(M.tuberculosis)", "setting": "PKNB(M.tuberculosis)", "value": 9}]}]}
